Measurements reported in publication PMC4109680, “Identification and Preclinical Pharmacology of the γ-Secretase Modulator BMS-869780” (International Journal of Alzheimer's Disease, 2014).
Like-named read-outs stand apart in the source and are kept apart here.

Assays:
Format in all cases: in vivo
brain Aβ1-42 and Aβ1-40 = assay: Rat 4-day repeat dose, residual brain Aβ by ELISA and immunodepletion
Description: Figure 7 BMS-869780 dose response and evaluation of residual Aβ levels in rat brain. (a) Groups of rats received intraperitoneal (IP) injections of vehicle or BMS-869780 at doses of 100, 30, 10, 3, 1, and 0.3 mg/kg. Additional rats were dosed with GSI BMS-698861 at 30 mg/kg as a positive control for Aβ-lowering. Group sizes were seven rats for each dose of BMS-869780 and 14 rats for vehicle and GSI dose groups. Brain and plasma were harvested 5 hours after dosing. Brain Aβ1-42 (green), brain Aβ1-40 (blue), brain Aβ1-x (black), and plasma Aβ1-40 (red) were determined. Values are expressed as % relative to vehicle group mean. Whiskers represent standard error. ⊗Aβ1-x was not determined in the groups dosed at 3, 1, and 0.3 mg/kg. (b) Brain Aβ1-40 was plotted against brain Aβ1-42 for each rat dosed with BMS-869780 (black ▼) and for each rat dosed with vehicle (grey ●). Values are expressed as % relative to vehicle group mean. Whiskers represent standard error. […] The respective 95% confidence intervals were 618–1053 nM, 704–1264 nM, and 44–158 nM. (d) Rats were dosed once daily with BMS-869780 for 4 days at 10 and 100 mg/kg or vehicle, plasma, and brain samples were taken 5 hours after the last dose, and immunodepletion of brain extracts was carried out prior to Aβ1-42 ELISA assays. […] After immunodepletion, Aβ1-42 was assayed by ELISA. (e) Same as described in (d), except that Aβ1-40 ELISA was carried out following the immunodepletion.
For immunodepletion of rat brain Aβ, solid phase extracts were pooled within treatment groups. The pools were divided into equal aliquots and incubated with or without monoclonals 565, TSD, 4G8, or 6E10 (10 μg) at 4°C overnight. Protein G beads (50 μL; EZview, Sigma) were added, and incubation was continued with agitation for 1 hour. The beads were removed by centrifugation, and Aβ1-40 and Aβ1-42 in the unbound fraction were quantified by ELISA, as described above.
(§1) All experimental procedures with animals followed National Institutes of Health guidelines and were authorized by and in compliance with policies of the Bristol-Myers Squibb Animal Use and Care Committee. Mice and rats were housed with a 6:00 AM to 6:00 PM light/dark cycle and allowed free access to food and water. For 3xTg mice, BMS-869780 was dosed in three-month-old females by oral gavage at 6 mL/kg in vehicle consisting of 84% polyethylene glycol average molecular weight of 400 (PEG-400), 15% EtOH, and 1% Tween-80 (w/w/w). The compound was dissolved in EtOH and then diluted with PEG-400 and Tween, after which the vial was sealed, vortexed, and sonicated at 56°C for 1 hour. Animals were euthanized by asphyxiation in CO2. Blood was collected by cardiac puncture and placed into ethylene-diaminetetraacetic acid microtainer tubes for the preparation of plasma. The cerebellum was collected for the determination of compound concentration, and the remaining brain was separated into left and right halves before freezing in liquid nitrogen. For the rat time course study, 8- to 12-week-old female Sprague-Dawley rats were obtained from Charles River Laboratories (Wilmington, MA), BMS-869780 was dosed orally at 4 mL/kg, and brain and plasma samples were collected as described for the 3xTg mice. For the four day repeat dose rat study, BMS-869780 was given by oral gavage in vehicle consisting of PEG-400, PEG-200, D-α-tocopheryl polyethylene glycol succinate, Solutol HS 15, in the ratio 80 : 10 : 5 : 5 (w/w/w/w). Methods for the pharmacokinetics studies in rat, dog, and monkey are described below.

brain Aβ1-42 = assay: Rat time course PK/PD, oral dose, indirect response model; details: for IC50: po
Description: (§2) Figure 8 Analysis of the PK/PD relationship for BMS-869780 in rats and mice. Rats were dosed orally with BMS-869780 at 10 mg/kg, and triple transgenic mice were orally dosed at 30 mg/kg and 100 mg/kg. Additional groups of rats and mice were dosed with vehicle alone. Brain and plasma were harvested at 3, 5, 8, 16, and 24 hours after dosing for determination of brain Aβ1-42 and plasma BMS-869780 concentration. Group sizes were 5 rats or 4 mice. Whiskers represent standard error. […] The data were fit to a one-compartment PK model and the predicted plasma BMS-869780 concentrations are shown for mouse (solid lines) and rat (broken line). […] The data were fitted using the indirect pharmacodynamic response model and predicted values are shown (solid lines). (c) Brain Aβ1-42 levels were determined for the rats dosed with BMS-869780 at 10 mg/kg (▼) or vehicle alone (●). The data were fitted using the indirect pharmacodynamic response model and predicted values are shown (dashed line). (d) Brain Aβ1-40 levels determined in the same rats as illustrated in (c).
as §1
(§3) The data generated in the mouse and rat time course experiments were analyzed sequentially by nonlinear regression (WinNonlin Pharsight Corporation, Mountain View, CA). The pharmacokinetic data were best described by a 1-compartment linear model with first-order absorption and elimination. Subsequently, the pharmacodynamic parameters were estimated from the BMS-869780 plasma concentrations and the observed reductions of brain Aβ1-42 or Aβ1-40 by fitting to the equation for inhibition of synthesis. The goodness-of-fit was determined by visual inspection, Akaike Information Criterion, Schwartz Criterion, examination of the residuals and the coefficient of variation of the parameter estimates.

[1] = as above; details: female, Sprague-Dawley, plasma
Description: as §2, §1, §3

[2] = averaged across depleted samples in both dose groups
[3] = four daily doses, 10 and 100 mg/kg, 5 hours after last dose
[4] = Rat 10 mg/kg PO solution (observed 0–24 hours)

SMILES: COc1cc(Nc2nc3n(n2)CCCC[C@H]3c2ccc(F)cc2)ccc1-n1cnc(Cl)c1 [BMS-869780]
- residual signal for Aβ1-40 after immunodepletion (brain Aβ1-42 and Aβ1-40; [2]): 4%
- residual signal for Aβ1-42 after immunodepletion (brain Aβ1-42 and Aβ1-40; [2]): 16%
- residual pool of Aβ1-40 (brain Aβ1-42 and Aβ1-40; four daily doses): ~7%
- residual pool of Aβ1-42 (brain Aβ1-42 and Aβ1-40; four daily doses): ca. 15%
- residual ELISA signal for Aβ1-40 (brain Aβ1-42 and Aβ1-40; [3]): 19%
- residual ELISA signal for Aβ1-42 (brain Aβ1-42 and Aβ1-40; [3]): 31%
- Brain Aβ ABEC 24 hr Aβ1-40 (brain Aβ1-42; [4]): 46.1%
- Brain Aβ ABEC 24 hr Aβ1-42 (brain Aβ1-42; [4]): 47.0%
- IC50 (brain Aβ1-42; Rattus norvegicus, read-out: in vivo plasma IC50 for brain Aβ1-42): 1900 nM
- IC50 (brain Aβ1-42; rat, PD model, read-out: IC50 (plasma concentration required for 50% inhibition of Aβ production)): 1890 nM
- V/F (brain Aβ1-42; rat): 1.94 L/kg
- in vivo IC50 (corrected for protein binding) relative to in vitro IC50 for Aβ1-42 (brain Aβ1-42; rat and 3xTg mouse, M146V allele taken into account for mouse): ≤ 2 fold
- Ka1 (10 mg/kg) (brain Aβ1-42; rat, 10 mg/kg oral): 0.19 h⁻¹
- K in (brain Aβ1-42; rat, calculated): 48 %/h
- K OUT (brain Aβ1-42; rat, rate constant for degradation of Aβ): 0.48 h⁻¹
- k el ([1]; oral, 10 mg/kg, rat, 1-compartment PK model): 2.78e-05 s⁻¹
- AUC(0-t) [1, 4]: 46.3 µM·h
